# Laboratory results published in paper PMC6177136, “Hybrid topoisomerase I and HDAC inhibitors as dual action anticancer agents” (PLoS ONE, 2018).
# Where two headings read alike, the source gives them in different places.
# Experiments:
# MM432 = assay: Cytotoxicity assay, primary mesothelioma MM432; assay type: cell-based, Human; conditions: sarcomatoid, 72 h, SBR assay, read-out: IC50 ± SD MM432
# MM317 = assay: Cytotoxicity assay, primary mesothelioma MM317; assay type: cell-based, Human; conditions: epithelioid, 72 h, SBR assay, read-out: IC50 ± SD MM317
# MM491 = assay: Cytotoxicity assay, primary mesothelioma MM491; assay type: cell-based, Human; conditions: biphasic, 72 h, SBR assay; read-out: IC50 ± SD MM491
# MM288 = assay: Cytotoxicity assay, primary mesothelioma MM288; assay type: cell-based, Human; conditions: epithelioid, 72 h, SBR assay, read-out: IC50 ± SD MM288
# MM473 = assay: Cytotoxicity assay, primary mesothelioma MM473; assay type: cell-based, Human; conditions: epithelioid, 72 h, SBR assay; read-out: IC50 ± SD MM473
# MM404 = assay: Cytotoxicity assay, primary mesothelioma MM404; assay type: cell-based, Human; conditions: epithelioid, 72 h, SBR assay; read-out: IC50 ± SD MM404
# MM487 = assay: Cytotoxicity assay, primary mesothelioma MM487; assay type: cell-based, Human; conditions: biphasic, 72 h, SBR assay, read-out: IC50 ± SD MM487
# MM481 = assay: Cytotoxicity assay, primary mesothelioma MM481; assay type: cell-based, Human; conditions: epithelioid, 72 h, SBR assay; read-out: IC50 ± SD MM481
# MM472 = assay: Cytotoxicity assay, primary mesothelioma MM472; assay type: cell-based, Human; conditions: sarcomatoid, 72 h, SBR assay; read-out: IC50 ± SD MM472
# A2780 = assay: Cytotoxicity assay (SRB, 72 h) A2780; assay type: cell-based, Human; conditions: Homo sapiens, A2780, read-out: IC50 ± SD A2780
# A2780-Dx = assay: Cytotoxicity assay (SRB, 72 h) A2780-Dx; assay type: cell-based, Human; conditions: for IC50: Homo sapiens, A2780/DX, 72 h, SRB assay, multidrug-resistant ovarian carcinoma, read-out: IC50 ± SD A2780-Dx
# NCI-H460 = assay: Cytotoxicity assay (SRB, 72 h) NCI-H460; assay type: cell-based, Human; conditions: Homo sapiens, NCI-H460; 72 h, SRB assay; read-out: IC50 ± SD NCI-H460
# U-2932 = assay: Cytotoxicity assay (MTT, 72 h) U-2932; assay type: cell-based, Human; conditions: Homo sapiens, U2932, read-out: IC50 ± SD U-2932
# [1] = tested on: human epithelioid mesothelioma MM473-Luc; assay: In vivo antitumor activity, orthotopic MM473-Luc xenograft; conditions: i.v. 35 mg/kg, q4dx3, treatment from day 15
# MINO = assay: Cytotoxicity assay (MTT, 72 h) MINO; assay type: cell-based, Human
# [2] = tested on: series of human tumor cell lines; assay: Antiproliferative activity, series of human tumor cell lines (summary); assay type: cell-based; conditions: span over the cell line panel, 72 h, SRB assay, read-out: IC50 across the human tumor cell lines of Table 3
# OCI-LY3 = assay: Cytotoxicity assay (MTT, 72 h) OCI-LY3; assay type: cell-based, Human; conditions: for IC50: Homo sapiens, OCI-Ly3, 72 h, MTT assay, read-out: IC50 ± SD OCI-LY3
# Protocol: (§1) Human tumor cells were seeded in 96-well cell culture plastic plates, allowed to attach, and exposed to scalar concentrations of the test compounds.
# [3] = tested on: hematologic cancer cell lines; assay: Screening on hematologic cancer cell lines (summary); assay type: cell-based; conditions: Homo sapiens, read-out: IC50 across hematologic cancer cell lines (Tables 5 and 6); span over the cell line panel, 72 h, MTT assay
# JECO-1 = assay: Cytotoxicity assay (MTT, 72 h) JECO-1; assay type: cell-based, Human
# DG-75 = assay: Cytotoxicity assay (MTT, 72 h) DG-75; assay type: cell-based, Human
# DU145 = assay: Cytotoxicity assay (SRB, 72 h) DU145; assay type: cell-based, Human; conditions: Homo sapiens, DU-145, read-out: IC50 ± SD DU145
# Capan 1 = assay: Cytotoxicity assay (SRB, 72 h) Capan 1; assay type: cell-based, Human; conditions: Homo sapiens, CAPAN-1, read-out: IC50 ± SD Capan 1
# HeLa = assay: Cytotoxicity assay (SRB, 72 h) HeLa; assay type: cell-based, Human; conditions: Homo sapiens, HeLa, read-out: IC50 ± SD HeLa
# HT29 = assay: Cytotoxicity assay (SRB, 72 h) HT29; assay type: cell-based, Human; conditions: Homo sapiens, HT-29, read-out: IC50 ± SD HT29
# A431 = assay: Cytotoxicity assay (SRB, 72 h) A431; assay type: cell-based, Human; conditions: Homo sapiens, A-431, read-out: IC50 ± SD A431
# KM-H2 = assay: Cytotoxicity assay (MTT, 72 h) KM-H2; assay type: cell-based, Human
# MAVER-2 = assay: Cytotoxicity assay (MTT, 72 h) MAVER-2; assay type: cell-based, Human; conditions: Homo sapiens, read-out: IC50 ± SD MAVER-2
# L-428 = assay: Cytotoxicity assay (MTT, 72 h) L-428; assay type: cell-based, Human; conditions: for IC50: Homo sapiens, L-428, 72 h, MTT assay, read-out: IC50 ± SD L-428
# Protocol: as §1
# [4] = tested on: primary malignant pleural mesothelioma (MPM) cell lines; assay: Primary malignant pleural mesothelioma (MPM) cell lines (summary); assay type: cell-based; conditions: Homo sapiens, span over the cell line panel, 72 h, read-out: IC50 across primary mesothelioma cell lines (Table 7)
# NB4 = assay: Cytotoxicity assay (MTT, 72 h) NB4; assay type: cell-based, Human; conditions: Homo sapiens, NB-4, read-out: IC50 ± SD NB4
# NCI-H460 NSCLC cells = assay: FACS analysis of cell cycle and apoptosis; assay type: cell-based, Human; conditions: 72 h at own IC80 dose, PI staining; for Sub-G0/1 (%): apoptosis
# HepG2 = assay: Cytotoxicity assay (SRB, 72 h) HepG2; assay type: cell-based, Human; conditions: Homo sapiens, HepG2, read-out: IC50 ± SD HepG2
# RPMI-8226 = assay: Cytotoxicity assay (MTT, 72 h) RPMI-8226; assay type: cell-based; conditions: Homo sapiens, read-out: IC50 ± SD RPMI-8226
# Protocol: as §1
# p21 = assay: Western blot, p21 in NCI-H460 cells; assay type: cell-based, Human; conditions: 24 h; SAHA 5 μM, SN38 0.05 μM, 3d 0.125–0.2–0.5 μM
# Protocol: (§2) The supernatant, containing the total proteins extracts, were transferred in new vials. The protein concentration was measured by Bradford Protein Assay. Equal amounts of proteins for each sample were then resolved by SDS-PAGE and loaded on 10–12% polyacrilamide gels. The proteins were then transferred on nitrocellulose membranes. Molecular weights were estimated based upon the relative migration with molecular weight protein markers.
# The non-specific binding was blocked by incubation of membranes in TBS-tween (25 mM Tris, 150 mM NaCl, 0.1% Tween 20) with 5% nonfat dry milk (BIORAD, Milan) for 60 minutes. Subsequently, the membrane was incubated overnight with primary antibodies: anti-Histone H4 (Millipore, 1:500), anti-acetyl-H4 (Santa Cruz, 1:1000) anti-p21 (Santa Cruz, 1:1000), anti-acetyl-tubulin (abcam, 1:1000), anti-α-tubulin (Sigma, 1:5000), anti β-actin (Sigma, 1:5000) and anti-Topoisomerase 1 (Santa Cruz, 1:500). After three washes with TBST blots were incubated with HRP-coniugated secondary anti-mouse and anti-rabbit (Santa Cruz, 1:5000) 1 hour at room temperature. After three washes with TBST the blots were developed with ECL substrate (GE Healthcare) and chemiluminescence detected by ChemiDoc Imaging System (Biorad). The optical density of the protein bands detected by western blotting was normalized on α -tubulin levels and analyzed by ChemiDoc software (Biorad). […]
# H2A.X = assay: Western blot, H2A.X induction in NCI-H460 cells; assay type: cell-based, Human; conditions: 24 h; SAHA 5 μM, SN38 0.05 μM, 3d 0.125–0.2–0.5 μM
# Protocol: as §2
# (§3) The non-specific binding was blocked by incubation of membranes in TBS-tween (25 mM Tris, 150 mM NaCl, 0.1% Tween 20) with 5% nonfat dry milk (BIORAD, Milan) for 60 minutes. Subsequently, the membrane was incubated overnight with primary antibodies: anti-Histone H4 (Millipore, 1:500), anti-acetyl-H4 (Santa Cruz, 1:1000) anti-p21 (Santa Cruz, 1:1000), anti-acetyl-tubulin (abcam, 1:1000), anti-α-tubulin (Sigma, 1:5000), anti β-actin (Sigma, 1:5000) and anti-Topoisomerase 1 (Santa Cruz, 1:500). After three washes with TBST blots were incubated with HRP-coniugated secondary anti-mouse and anti-rabbit (Santa Cruz, 1:5000) 1 hour at room temperature. After three washes with TBST the blots were developed with ECL substrate (GE Healthcare) and chemiluminescence detected by ChemiDoc Imaging System (Biorad). The optical density of the protein bands detected by western blotting was normalized on α -tubulin levels and analyzed by ChemiDoc software (Biorad).
# (§4) Cells were lysed in 0.5% NP-40 and 40 μg of total proteins were loaded on NuPAGE 4–12% (Invitrogen), transferred to a nitrocellulose paper and probed with specific antibodies.
# p16 = assay: Western blot, p16 in NCI-H460 cells; assay type: cell-based, Human; conditions: 24 h; SAHA 5 μM, SN38 0.05 μM, 3d 0.125–0.2–0.5 μM
# Protocol: as §2, §3, §4
# CycD1 = assay: Western blot, CycD1 in NCI-H460 cells; assay type: cell-based, Human; conditions: 24 h; SAHA 5 μM, SN38 0.05 μM, 3d 0.125–0.2–0.5 μM
# Protocol: as §2, §3, §4
# p53 = assay: Western blot, p53 in NCI-H460 cells; assay type: cell-based, Human; conditions: 24 h; SAHA 5 μM, SN38 0.05 μM, 3d 0.125–0.2–0.5 μM
# Protocol: as §2, §3, §4
# [5] = meaning not defined in the paper, given beside >10 μM
smiles,measurement,setting,value
N.N.[Cl][Pt][Cl] [Cisplatin],IC50,MM432,5 ± 0.8 µM
same,IC50,MM317,4.2 ± 0.6 µM
same,IC50,MM491,6.5 ± 0.9 µM
same,IC50,MM288,8.1 ± 0.3 µM
same,IC50,MM473,2.4 ± 0.2 µM
same,IC50,MM404,2.4 ± 0.5 µM
same,IC50,MM487,3 ± 0.5 µM
same,IC50,MM481,7 ± 1.5 µM
same,IC50,MM472,1.26 ± 0.1 µM
"CC[C@@]1(O)C(=O)OCc2c1cc1n(c2=O)Cc2c-1nc1ccccc1c2C=NOCCCCCCNC(=O)CS [Compound 10, N-[camptothecin-7-yl-(methyleneaminooxy)-hexyl]-2-mercaptoacetamide]",IC50,A2780,0.21 ± 0.05 µM
same,RI (Resistance Index),A2780-Dx; A2780-Dx versus A2780,1.7
same,IC50,A2780-Dx,0.35 ± 0.1 µM
same,melting point,,120 °C
same,IC50,NCI-H460,0.1 ± 0.01 µM
CCc1c2c(nc3ccc(OC(=O)N4CCC(N5CCCCC5)CC4)cc13)-c1cc3c(c(=O)n1C2)COC(=O)[C@]3(O)CC [Irinotecan],IC50,U-2932,4.4 ± 0.8 µM
same,IC50,MM432; Homo sapiens,10 ± 2 µM
same,"antitumor activity (BLI signal, average radiance)",[1],only a marginal antitumor effect
same,IC50,MM317; Homo sapiens,7 ± 1 µM
same,IC50,"MINO; Homo sapiens, MINO, 72 h, MTT assay, read-out: IC50 ± SD MINO",> 10 µM
same,"percentage in parentheses after IC50 >10, MINO",MINO; [5],36%
same,IC50,[2],> 1.5 µM
same,IC50,OCI-LY3,> 10 µM
same,"percentage in parentheses after IC50 >10, OCI-LY3",OCI-LY3; [5],0%
same,IC50,A2780,3.8 ± 0.5 µM
same,IC50,[3],> 10 µM
same,IC50,"JECO-1; Homo sapiens, 72 h, MTT assay, read-out: IC50 ± SD JECO-1",> 10 µM
same,"percentage in parentheses after IC50 >10, JECO-1",JECO-1; [5],48%
same,IC50,"DG-75; Homo sapiens, DG-75, 72 h, MTT assay, read-out: IC50 ± SD DG-75",> 10 µM
same,"percentage in parentheses after IC50 >10, DG-75",DG-75; [5],0%
same,IC50,DU145,2.8 ± 0.07 µM
same,IC50,Capan 1,1.5 ± 0.1 µM
same,IC50,HeLa,5.8 ± 0.6 µM
same,IC50,HT29,4.8 ± 0.4 µM
same,IC50,MM288; Homo sapiens,14.9 ± 2 µM
same,IC50,A2780-Dx,20.1 ± 2.9 µM
same,IC50,A431,4.1 ± 0.1 µM
same,IC50,"KM-H2; Homo sapiens, KM-H2, 72 h, MTT assay, read-out: IC50 ± SD KM-H2",> 10 µM
same,"percentage in parentheses after IC50 >10, KM-H2",KM-H2; [5],12%
same,IC50,MAVER-2,0.74 ± 0.1 µM
same,IC50,L-428,> 10 µM
same,"percentage in parentheses after IC50 >10, L-428",L-428; [5],0%
same,IC50,[4],> 7 µM
same,IC50,NB4,1 ± 0.3 µM
same,IC50,NCI-H460,2.4 ± 0.1 µM
same,G0/1 (%),NCI-H460 NSCLC cells,7.9%
same,G2/M (%),NCI-H460 NSCLC cells,3.2%
same,S (%),NCI-H460 NSCLC cells,89.0%
same,Sub-G0/1 (%),NCI-H460 NSCLC cells,2.7%
same,IC50,"MM487; Homo sapiens, MM487",9.4 ± 0.7 µM
same,IC50,HepG2,4 ± 0.8 µM
"O=C(CCCCCCC(=O)Nc1ccccc1)NO [SAHA, suberoylanilide hydroxamic acid]",IC50,RPMI-8226,1.98 ± 0.5 µM
same,expression of p21,p21,induction of p21
same,IC50,OCI-LY3,0.99 ± 0.3 µM
same,H2A.X induction (DNA damage),H2A.X,completely ineffective in H2A.X induction
same,P16 regulation,p16,down
same,CycD1 regulation,CycD1,up-regulated
same,IC50,L-428,2.3 ± 0.5 µM
same,IC50,[4],4 to 12 µM
same,p53 activation,p53,less effective in p53 up-regulation
same,G0/1 (%),NCI-H460 NSCLC cells,65.2%
same,G2/M (%),NCI-H460 NSCLC cells,23.1%
same,S (%),NCI-H460 NSCLC cells,11.7%
same,Sub-G0/1 (%),NCI-H460 NSCLC cells,1.8%
